Measured values published in US20140057895A1, “INDAZOLE- AND PYRROLOPYRIDINE-DERIVATIVE AND PHARMACEUTICAL USE THEREOF” (priority 2011, published 2014).
Where a name gives a salt, the structure may show the parent alone.

target: T1, 5-HT4 receptor (Cavia porcellus, UniProt O70528); assay: Test Example 3: Guinea pig 5-HT4 receptor binding assay, [3H]-GR113808, striatum membranes (Table 98); conditions: Guinea pig 5-HT4 receptor binding assay, [3H]-GR113808, striatum membranes; mean value of each group; read-out: IC50
T1 construct: striatum was isolated which was cryopreserved at −80° C. until use; from tissue; host or cells: guinea pig (Slc-Hartley) striatum membranes
T1 sequence (O70528 whole entry): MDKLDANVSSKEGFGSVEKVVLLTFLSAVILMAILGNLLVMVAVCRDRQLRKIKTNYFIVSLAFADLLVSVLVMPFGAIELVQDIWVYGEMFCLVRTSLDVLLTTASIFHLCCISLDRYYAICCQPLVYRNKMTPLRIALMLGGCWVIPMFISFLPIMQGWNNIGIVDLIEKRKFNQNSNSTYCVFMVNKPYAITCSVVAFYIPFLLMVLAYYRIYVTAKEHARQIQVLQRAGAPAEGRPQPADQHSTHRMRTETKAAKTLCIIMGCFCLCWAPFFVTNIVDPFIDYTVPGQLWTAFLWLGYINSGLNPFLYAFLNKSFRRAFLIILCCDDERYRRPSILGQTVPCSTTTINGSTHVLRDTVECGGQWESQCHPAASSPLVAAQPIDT
Method: The guinea pig 5-HT4 receptor binding assay and preparations of receptor membrane preparations herein were carried out according to a method of Grossman et al. [see, British J. Pharmacol., (1993) 109, 618].
Slc-Hartley guinea pigs (body weight 300 g to 400 g) were decapitated to remove brain rapidly, and striatum was isolated which was cryopreserved at −80° C. until use. To the obtained tissues were added fifteen fold of Hepes buffer (50 mM, pH 7.4, 4° C.), and the mixture was homogenized by Teflon (trademark) homogenizer and centrifuged at 48,000×g (4° C.) for 15 minutes. To the resulting precipitate was added Hepes buffer (1 ml) to 30 mg by wet weight of tissues, and the mixture was suspended to give receptor membrane preparations.
To an assay tube were added 0.1 nM [^3H]-GR113808 {chemical name: [1-[2-(methylsulfonylamino) ethyl]-4-piperidinyl]methyl 1-methylindole-3-carboxylate}, receptor membrane preparations, and Hepes buffer (50 mM, pH 7.4, 4° C., 1 ml) containing test compounds or 30 μM serotonin; and the mixture was incubated at 37° C. for 30 minutes. On quenching the reaction, the mixture was rapidly filtered on whatman GF/B filter, which was presoaked in 0.1% polyethyleneimine for 1 hour, by using Brandel cell Harvester, and washed with ice-cooled 50 mM Tris-HCl (pH 7.7, 4 ml) three times. To the filter after filtration was added a liquid scintillator (Ecoscint), and then a radioactivity was determined by a liquid scintillation counter.
50% Inhibition concentrations (IC50) were determined from inhibition rates of test compounds to specific bindings which were obtained by subtracting nonspecific bindings from total binding amounts of [^3H]-GR113808. […]

Molecule	IC50
COC(=O)CCCN1CCC(c2nc(-n3nc(C(C)C)c4cccc(F)c43)no2)CC1 [Example 397, methyl 4-(4-{3-[7-fluoro-3-(propan-2-yl)-1H-indazol-1-yl]-1,2,4-oxadiazol-5-yl}piperidin-1-yl)butanoate]	< 20 nM
CC(=O)N1CCC(N2CCC(c3nc(-n4nc(C(C)C)c5cc(C)ccc54)no3)CC2)CC1 [Example 410, 1-(4-{3-[5-methyl-3-(propan-2-yl)-1H-indazol-1-yl]-1,2,4-oxadiazol-5-yl}-1,4′-bipiperidin-1′-yl)ethanone]	323 nM
CCc1nn(-c2noc(C3CCN(C4CCC4)CC3)n2)c2cc(C)ccc12 [Example 434, 1-[5-(1-cyclobutylpiperidin-4-yl)-1,2,4-oxadiazol-3-yl]-3-ethyl-6-methyl-1H-indazole trifluoroacetate]	20.8 nM
CC(C)(C)c1nn(-c2noc(C3CCN(C4CCN(C(=O)CO)CC4)CC3)n2)c2ccccc12 [Example 522, 1-{4-[3-(3-tert-butyl-1H-indazol-1-yl)-1,2,4-oxadiazol-5-yl]-1,4′-bipiperidin-1′-yl}-2-hydroxyethanone]	222 nM
CC(C)c1nn(-c2noc(C3CCN(C4CCC(F)(F)CC4)CC3)n2)c2c(F)cccc12 [Example 442, 1-{5-[1-(4,4-difluorocyclohexyl)piperidin-4-yl]-1,2,4-oxadiazol-3-yl}-7-fluoro-3-(propan-2-yl)-1H-indazole]	< 20 nM
COc1cccc2c(C(C)C)nn(-c3noc(C4CCN(C5CCC5)CC4)n3)c12 [Example 440, 1-[5-(1-cyclobutylpiperidin-4-yl)-1,2,4-oxadiazol-3-yl]-7-methoxy-3-(propan-2-yl)-1H-indazole]	104 nM
CC(=O)N1CCC(N2CCC(c3nc(-n4nc(C(C)C)c5ccc(C)cc54)no3)CC2)CC1 [Example 462, 1-(4-{3-[6-methyl-3-(propan-2-yl)-1H-indazol-1-yl]-1,2,4-oxadiazol-5-yl}-1,4′-bipiperidin-1′-yl}ethanone trifluoroacetate]	109 nM
CC(=O)N1CCC(N2CCC(c3nc(-n4nc(C(C)C)c5c(O)ccc(F)c54)no3)CC2)CC1 [Example 555, 1-(4-{3-[7-fluoro-4-hydroxy-3-(propan-2-yl)-1H-indazol-1-yl]-1,2,4-oxadiazol-5-yl}-1,4′-bipiperidin-1′-yl)ethanone]	24.9 nM
5-methyl-3-(propan-2-yl)-1-{5-[1-(tetrahydro-2H-pyran-4-yl)piperidin-5-yl]-1,2,4-oxadiazol-3-yl}-1H-indazole [Example 428]	248 nM
COc1cccc2c(C(C)C)nn(-c3noc(C4CCN(C5CCN(C(C)=O)CC5)CC4)n3)c12 [Example 414, 1-(4-{3-[7-methoxy-3-(propan-2-yl)-1H-indazol-1-yl]-1,2,4-oxadiazol-5-yl}-1,4′-bipiperidin-1′-yl)ethanone]	86.9 nM
CC(=O)N1CCC(CN2CCC(c3nc(-n4nc(C(C)C)c5ccc(F)c(F)c54)no3)CC2)CC1 [Example 480, 1-{4-[(4-{3-[6,7-difluoro-3-(propan-2-yl)-1H-indazol-1-yl]-1,2,4-oxadiazol-5-yl}piperidin-1-yl)methyl]piperidin-1-yl}ethanone trifluoroacetate]	27.5 nM
CC(=O)N1CCC(N2CCC(Cc3nc(-n4nc(C(C)C)c5cccc(F)c54)no3)CC2)CC1 [Example 417, 1-[4-({3-[7-fluoro-3-(propan-2-yl)-1H-indazol-1-yl]-1,2,4-oxadiazol-5-yl}methyl)-1,4′-bipiperidin-1′-yl]ethanone]	36 nM
CC(=O)N1CCOC(CN2CCC(c3nc(-n4nc(C(C)C)c5cccc(F)c54)no3)CC2)C1 (centres unmarked) [Example 483, 1-{2-[(4-{3-[7-fluoro-3-(propan-2-yl)-1H-indazol-1-yl]-1,2,4-oxadiazol-5-yl}piperidin-1-yl)methyl]morpholin-4-yl}ethanone]	35.7 nM
CC(=O)N1CCC(N2CCC(c3nc(-n4nc(C(C)C)c5c(Cl)cccc54)no3)CC2)CC1 [Example 407, 1-(4-{3-[4-chloro-3-(propan-2-yl)-1H-indazol-1-yl]-1,2,4-oxadiazol-5-yl}-1,4′-bipiperidin-1′-yl)ethanone]	101 nM
COc1ccc2c(C(C)C)nn(-c3noc(C4CCN(C5CCN(C(C)=O)CC5)CC4)n3)c2c1F [Example 404, 1-(4-{3-[7-fluoro-6-methoxy-3-(propan-2-yl)-1H-indazol-1-yl]-1,2,4-oxadiazol-5-yl}-1,4′-bipiperidin-1′-yl)ethanone]	100 nM
CC(C)c1nn(-c2noc(C3CCN(C4CCN(C(=O)CO)CC4)CC3)n2)c2c(F)ccc(O)c12 [Example 553, 1-(4-{3-[7-fluoro-4-hydroxy-3-(propan-2-yl)-1,1′-indazol-1-yl]-1,2,4-oxadiazol-5-yl}-1,4′-bipiperidin-1′-yl)-2-hydroxyethanone]	18.7 nM
CC(C)c1nn(-c2noc(C3CCN(C4CCN(C(=O)C(=O)O)CC4)CC3)n2)c2c(F)cccc12 [Example 557, potassium (4-{3-[7-fluoro-3-(propan-2-yl)-1H-indazol-1-yl]-1,2,4-oxadiazol-5-yl}-1,4′-bipiperidin-1′-yl)(oxo)acetate]	127 nM
COCC(=O)N1CCC(N2CCC(c3nc(-n4nc(C(C)C)c5ccc(F)c(F)c54)no3)CC2)CC1 [Example 465, 1-(4-{3-[6,7-difluoro-3-(propan-2-yl)-1H-indazol-1-yl]-1,2,4-oxadiazol-5-yl}-1,4′-bipiperidin-1′-yl)-2-methoxyethanone trifluoroacetate]	< 20 nM
CC(C)c1nn(-c2noc(C3CCN(C4CC[S+]([O-])CC4)CC3)n2)c2c(F)cccc12 (centres unmarked) [Example 443, 7-fluoro-1-{5-[1-(1-oxidotetrahydro-2H-thiopyran-4-yl)piperidin-4-yl]-1,2,4-oxadiazol-3-yl}-3-(propan-2-yl)-1H-indazole]	18.1 nM

More lines, now with the values ahead:

IC50	Molecule
< 20 nM	CC(C)c1nn(-c2noc(C3CCN(CC4CN(S(C)(=O)=O)CCO4)CC3)n2)c2c(F)cccc12 (centres unmarked) [Example 486, 7-fluoro-1-[5-(1-{[4-(methylsulfonyl)morpholin-2-yl]methyl}piperidin-4-yl)-1,2,4-oxadiazol-3-yl]-3-(propan-2-yl)-1H-indazole]
113 nM	CCc1nn(-c2noc(C3CCN(C4CCOCC4)CC3)n2)c2cc(C)ccc12 [Example 437, 3-ethyl-6-methyl-1-{5-[1-(tetrahydro-2H-pyran-4-yl)piperidin-4-yl)-1,2,4-oxadiazol-3-yl}-1H-indazole trifluoroacetate]
< 20 nM	CCc1nn(-c2noc(C3CCN(CC4CCN(C(=O)OC)CC4)CC3)n2)c2c(F)c(F)ccc12 [Example 476, methyl 4-({4-[3-(3-ethyl-6,7-difluoro-1H-indazol-1-yl)-1,2,4-oxadiazol-5-yl]piperidin-1-yl}methyl)piperidin-1-carboxylate trifluoroacetate]
< 20 nM	CC(C)c1nn(-c2noc(C3CCN(CCC(=O)c4ccccc4)CC3)n2)c2c(F)cccc12 [Example 396, 3-(4-{3-[7-fluoro-3-(propan-2-yl)-1H-indazol-1-yl]-1,2,4-oxadiazol-5-yl}piperidin-1-yl)-1-phenylpropan-1-one]
< 20 nM	CC(=O)N1CCC(N2CCC(c3nc(-n4nc(C(C)C)c5cccc(C)c54)no3)CC2)CC1 [Example 413, 1-(4-{3-[7-methyl-3-(propan-2-yl)-1H-indazol-1-yl]-1,2,4-oxadiazol-5-yl}-1,4′-bipiperidin-1′-yl)ethanone]
130 nM	CC(C)c1nn(-c2noc(C3CCN(C4CCC4)CC3)n2)c2cc(Cl)ccc12 [Example 431, 6-chloro-1-[5-(1-cyclobutylpiperidin-4-yl)-1,2,4-oxadiazol-3-yl]-3-(propan-2-yl)-1H-indazole]
179 nM	Cc1ccc2c(C(C)C)nn(-c3noc(C4CCN(CC5CCOCC5)CC4)n3)c2c1 [Example 436, 6-methyl-3-(propan-2-yl)-1-{5-[1-(tetrahydro-2H-pyran-4-ylmethyl)piperidin-4-yl]-1,2,4-oxadiazol-3-yl}-1H-indazole trifluoroacetate]
< 20 nM	CC(C)c1nn(-c2noc(C3CCN(C4CCN(S(C)(=O)=O)CC4)CC3)n2)c2c(F)cccc12 [Example 466, 4-{3-[7-fluoro-3-(propan-2-yl)-1H-indazol-1-yl]-1,2,4-oxadiazol-5-yl}-1′-(methylsulfonyl)-1,4′-bipiperidine trifluoroacetate]
36.1 nM	CC(=O)N1CCC(N2CCC(c3nc(-n4nc(C(C)(C)O)c5cccc(F)c54)no3)CC2)CC1 [Example 403, 1-(4-{3-[7-fluoro-3-(2-hydroxypropan-2-yl)-1H-indazol-1-yl]-1,2,4-oxadiazol-5-yl}-1,4′-bipiperidin-1′-yl)ethanone]
78.2 nM	COc1cccc2c(C(C)C)nn(-c3noc(C4CCN(C5CCOCC5)CC4)n3)c12 [Example 441, 7-methoxy-3-(propan-2-yl)-1-{5-[1-(tetrahydro-2H-pyran-4-yl)piperidin-4-yl]-1,2,4-oxadiazol-3-yl}-1H-indazole]
